Laboratory results taken from US20050176945A1, “Cloning and characterization of slc26a7 and slc26a9 anion exchangers” (priority 2002, published 2005).

How the values were obtained:
SLC26A7 [1] = molecular target: T1, SLC26A7 (Mus musculus, UniProt Q8R2Z3, F233L/S639T); assay: 36Cl- uptake in SLC26A7-injected Xenopus oocytes; type: cell-based; parameters: Full-length mouse SLC26A7 and SLC26A9 cDNAs were cloned into the Xenopus expression vector pGEMHE; expressed in transfected cells; host or cells: Xenopus laevis oocytes injected with cRNA transcribed in vitro from pGEMHE; conditions: 1 mM DIDS, pH 6.0, isotonic and hypotonic conditions
T1 sequence (Q8R2Z3 1-656 F233L/S639T): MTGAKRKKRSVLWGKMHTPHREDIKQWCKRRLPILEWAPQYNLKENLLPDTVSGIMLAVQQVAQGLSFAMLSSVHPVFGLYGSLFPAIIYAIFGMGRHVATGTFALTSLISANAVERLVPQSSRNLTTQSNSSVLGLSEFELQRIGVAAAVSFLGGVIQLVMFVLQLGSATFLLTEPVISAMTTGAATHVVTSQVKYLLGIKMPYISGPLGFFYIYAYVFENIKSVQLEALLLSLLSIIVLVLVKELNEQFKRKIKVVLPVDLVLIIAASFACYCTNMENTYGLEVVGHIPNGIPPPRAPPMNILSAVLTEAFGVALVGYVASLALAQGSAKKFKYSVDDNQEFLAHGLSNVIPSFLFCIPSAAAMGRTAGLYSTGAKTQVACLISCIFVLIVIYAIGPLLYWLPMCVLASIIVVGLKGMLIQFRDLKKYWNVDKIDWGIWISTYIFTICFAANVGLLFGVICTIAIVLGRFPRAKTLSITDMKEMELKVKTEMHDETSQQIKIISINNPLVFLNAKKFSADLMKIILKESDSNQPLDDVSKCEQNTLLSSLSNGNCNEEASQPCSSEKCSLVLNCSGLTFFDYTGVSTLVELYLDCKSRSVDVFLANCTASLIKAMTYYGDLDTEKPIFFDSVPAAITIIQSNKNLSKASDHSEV
Procedure: FIG. 3A is a bar graph that depicts ^36Cl^− uptake (pmol/oocyte/h) as a function of extracellular osmolality and pH in SLC26A7-injected oocytes (A7) and water injected control oocytes (H2O). Oocytes were incubated during the pre-uptake period and uptake period at varying osmolaltiy at either pH 7.4 (open bars), pH 6.0 (black bars), or at pH 6.0 in the presence of 1 mM DIDS (grey bars). ISO, isotonic osmolality, 210 mOsm/kg; HYPO, hypotonic osmolality, 120 mOsm/kg; HYPER, hypertonic osmolality, 300 mOsm/kg; h, hour.

SLC26A9 [2] = molecular target: T2, SLC26A9 (Mus musculus, UniProt Q8BU91, G332D/L540F); assay: 36Cl- uptake (Cl-Cl exchange) in SLC26A9-injected Xenopus oocytes; type: cell-based; parameters: Full-length mouse SLC26A7 and SLC26A9 cDNAs were cloned into the Xenopus expression vector pGEMHE; expressed in transfected cells; host or cells: Xenopus laevis oocytes injected with cRNA transcribed in vitro from pGEMHE; conditions: 1 mM DIDS, pH 6.0
T2 sequence (Q8BU91 1-790 G332D/L540F): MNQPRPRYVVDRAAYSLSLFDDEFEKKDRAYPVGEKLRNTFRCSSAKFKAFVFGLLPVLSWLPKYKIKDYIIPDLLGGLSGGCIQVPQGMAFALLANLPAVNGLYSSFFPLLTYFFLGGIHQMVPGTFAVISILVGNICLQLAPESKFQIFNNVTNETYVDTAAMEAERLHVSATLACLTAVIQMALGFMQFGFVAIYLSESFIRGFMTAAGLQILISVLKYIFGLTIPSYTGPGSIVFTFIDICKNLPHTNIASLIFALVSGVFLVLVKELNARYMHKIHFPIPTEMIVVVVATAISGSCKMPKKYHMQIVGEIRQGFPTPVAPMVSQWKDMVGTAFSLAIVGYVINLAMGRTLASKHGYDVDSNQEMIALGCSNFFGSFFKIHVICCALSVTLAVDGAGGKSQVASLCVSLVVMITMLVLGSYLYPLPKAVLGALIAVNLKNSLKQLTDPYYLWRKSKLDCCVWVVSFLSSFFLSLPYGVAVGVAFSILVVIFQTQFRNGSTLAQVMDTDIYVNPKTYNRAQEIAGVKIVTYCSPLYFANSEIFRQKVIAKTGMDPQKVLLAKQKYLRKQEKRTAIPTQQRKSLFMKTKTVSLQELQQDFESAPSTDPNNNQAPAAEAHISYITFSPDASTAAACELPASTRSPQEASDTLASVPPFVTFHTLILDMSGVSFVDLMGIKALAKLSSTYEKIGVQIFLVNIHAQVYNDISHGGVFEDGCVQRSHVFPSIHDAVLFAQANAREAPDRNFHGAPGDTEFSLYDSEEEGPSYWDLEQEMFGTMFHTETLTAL
Procedure: FIG. 3B is a bar graph that depicts DIDS inhibition of ^36Cl^− uptake (pmol/oocyte/h) in SLC26A9injected oocytes (Slc26a9) and water-injected control oocytes (H2O). Oocytes were incubated during the pre-uptake period and uptake period at either pH 7.4 (open bars), pH 6.0 (black bars), or at pH 6.0 in the presence of 1 mM DIDS (grey bars). H, hour.
FIG. 3C is a bar graph that depicts a lack of cis-inhibition of Cl^−-Cl^− exchange in oocytes expressing SLC26A9 or in control oocytes (H2O). Oocytes were incubated in medium containing ^36Cl^− for one hour in the absence (control) or presence of 25 mM of the indicated anions.

SLC26A2 = conditions: 25 mM Cl- added to the medium
Procedure: (§1) Oocytes expressing SLC26A2, SLC26A7, or SLC26A9, or control oocytes (H2O) were incubated in medium containing ^35SO4^2− for one hour. (−), Cl^−-free medium; (+), 25 mM Cl^− added to the medium; hr, hour.
(§2) Full-length mouse SLC26A7 and SLC26A9 cDNAs were cloned into the Xenopus expression vector pGEMHE (Liman et al., 1992). SLC26A6 and SLC26A2 constructs were also prepared for use as controls in transport assays (Example 7). Expression constructs were linearized, and cRNA was transcribed in vitro using T7 RNA polymerase and a […] MMACHINE® transcription kit (Ambion, Inc. of Austin, Tex., United States of America). Defolliculated oocytes were injected with 25 nl to 50 nl of water or with a solution containing cRNA at a concentration of 0.5 μg/μl (12.5 ng to 25 ng per oocyte) using a Nanoliter-2000 injector (WPI Instruments of Sarasota, Fla., United States of America). Oocytes were incubated at 17° C. in 50% Leibovitz's L-15 media supplemented with penicillin/streptomycin (1000 units/ml) and glutamine for 2-3 days for uptake assays.
(§3) For sulphate uptake assays, oocytes were pre-incubated for 20 minutes in chloride-free uptake medium (100 mM NMDG gluconate, 2 mM potassium gluconate, 1 mM calcium gluconate, 1 mM magnesium gluconate, 10 mM HEPES-Tris, pH 6.0 or pH 7.5 as indicated), followed by a 60-minute period for uptake in the same medium supplemented with 1 mM K2^35SO4 (40 μCi/ml). The cells were then washed three times in uptake buffer with 5 mM cold K2SO4 to remove tracer activity in the extracellular fluid. The oocytes were dissolved individually in 10% SDS, and tracer activity was determined by scintillation counting. Uptake of chloride, formate, and oxalate was assayed using the same chloride-free uptake solutions, substituting 8.3 mM ^36Cl, 500 μM [^14C]oxalate, or 50 μM [^14C]formate for labeled sulphate. Each uptake experiment included 12-18 oocytes in each experimental group, and results were reported as means±SEM. […]

SLC26A7 [3] = molecular target: T1, SLC26A7; conditions: 25 mM Cl- added to the medium
Procedure: as §1, §2, §3

SLC26A9 [4] = molecular target: T2, SLC26A9; conditions: 25 mM Cl- added to the medium
Procedure: as §1, §2, §3

| DIDS sensitivity of SLC26A7 36Cl- uptake activity (SLC26A7 [1]) | DIDS sensitivity of Cl-Cl exchange mediated by SLC26A9 (SLC26A9 [2]) | Structure (SMILES) | effect of extracellular Cl- on 35SO4 2- uptake by SLC26A2 (SLC26A2) | effect of extracellular Cl- on 35SO4 2- uptake in SLC26A7-injected oocytes (SLC26A7 [3]) | effect of extracellular Cl- on 35SO4 2- uptake in SLC26A9-injected oocytes (SLC26A9 [4]) |
| --- | --- | --- | --- | --- | --- |
| modestly DIDS-sensitive | moderately sensitive | O=S(=O)(O)c1cc(N=C=S)ccc1C=Cc1ccc(N=C=S)cc1S(=O)(=O)O [DIDS, 4,4′-diisothiocyanatostilbene-2,2′-disulfonic acid] |  |  |  |
|  |  | Cl [Cl^−, chloride] | significantly inhibited | without activating | without activating |
